The source of these data is publication PMC8041284, “Tunable Methacrylamides for Covalent Ligand Directed Release Chemistry” (Journal of the American Chemical Society, 2021).

The target of this experiment is BTK (Homo sapiens, UniProt Q06187). Description: biochemical.
[1] abbreviates: read-out: BTK inhibition (%), 0.75 uM BTK, […] probe 3l, 15 min preincubation.

The term inhibition denotes the relative decrease from the control value, in per cent.

SMILES strings stand for the structures. Read-outs that look alike come from different tables or passages of the source.

Sequence of BTK (Q06187 402-655 limits assumed): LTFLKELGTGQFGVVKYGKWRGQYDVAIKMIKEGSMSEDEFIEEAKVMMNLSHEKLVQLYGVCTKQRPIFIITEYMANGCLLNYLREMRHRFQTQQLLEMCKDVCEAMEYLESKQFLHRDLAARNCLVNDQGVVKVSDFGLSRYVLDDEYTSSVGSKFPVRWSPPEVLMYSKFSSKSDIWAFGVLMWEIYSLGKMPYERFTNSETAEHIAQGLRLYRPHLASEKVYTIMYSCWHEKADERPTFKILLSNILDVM

With `CC(C)OC(=O)C(C(=O)OC(C)C)=C1SC=CS1` [PCM-0094945], the inhibition at 10 µM under setting [1] came to 3.9%.
For the compound `Cc1cc2c(F)c(Oc3ncnn4cc(OC[C@@H](C)OC(=O)[C@H](C)N)c(C)c34)ccc2[nH]1` [PCM-0094946], the inhibition at 10 µM under setting [1] was -44.8%.
With `CCN(CC)C(=O)c1ccc(C2=CC3(CCNCC3)Oc3cccc(O)c32)cc1` [PCM-0094948], the inhibition at 10 µM under setting [1] is -14%.
Same read-out and setting: as for `Nc1nc(Cl)nc2c1ncn2[C@@H]1O[C@H](CO)[C@@H](O)[C@@H]1F` [PCM-0094949], the figure is 1.4%; as for `Nc1ccc(C(=O)Nc2cccc(-c3nc(N4CCOCC4)c4oc5ncccc5c4n3)c2)cn1` [PCM-0094950], -4.8%.
`O=C(Nc1ccc(OC(F)(F)F)cc1)c1sccc1NCc1ccnc2ccccc12` [PCM-0094951]: the inhibition at 10 µM under setting [1] stood at 90.3%.
`COc1ccc(-c2ccc3c(N4CCOCC4)nc(N4C[C@@H](C)O[C@@H](C)C4)nc3n2)cc1CO` [PCM-0094955]: the inhibition at 10 µM under setting [1] is -12.4%.
As for `CC(=O)Nc1ccc(OC[C@](C)(O)C(=O)Nc2ccc([N+](=O)[O-])c(C(F)(F)F)c2)cc1` [PCM-0094957], the inhibition at 10 µM (read-out: BTK inhibition (%)) was -1.4%.
In the case of `CNC(=O)c1cc(Oc2ccc(NC(=O)Nc3ccc(Cl)c(C(F)(F)F)c3)cc2)ccn1` [PCM-0094958], under setting [1], the inhibition at 10 µM amounted to 73.8%.
Consider `C=CCNC1=C2C[C@@H](C)C[C@H](OC)[C@H](O)[C@@H](C)/C=C(\C)[C@H](OC(N)=O)[C@@H](OC)/C=C\C=C(/C)C(=O)NC(=CC1=O)C2=O` [PCM-0094959], for which the inhibition at 10 µM under setting [1] is 14%.
Regarding `Cc1cccc(Nc2nc(-c3ccncc3)cs2)c1` [PCM-0094960], the inhibition at 10 µM under setting [1] was -1.6%.
Still for that read-out and setting: for `CO[C@H]1/C=C\C=C(/C)C(=O)NC2=CC(=O)C(NCCN(C)C)=C(C[C@@H](C)C[C@H](OC)[C@H](O)[C@@H](C)/C=C(\C)[C@@H]1OC(N)=O)C2=O` [PCM-0094961] the value was 28.3%.
For the compound `N#C/C(=C\c1ccc(O)c(O)c1)C(=O)NCc1ccccc1` [PCM-0094962], under setting [1], the inhibition at 10 µM worked out at 53.1%.
As to `CC(C)(C)c1cc(C(C)(C)C)c(NC(=O)c2c[nH]c3ccccc3c2=O)cc1O` [PCM-0094963], the inhibition at 10 µM under setting [1] amounted to 49.8%.
Turning to `CC(C)(C)c1cnc(CSc2cnc(NC(=O)C3CCNCC3)s2)o1` [PCM-0094965], the inhibition at 10 µM under setting [1] was -6.2%.
The same measure, in the same setting: for `COc1cc2c(Nc3ccc(Br)cc3F)ncnc2cc1OCC1CCN(C)CC1` [PCM-0094968] the value was 25.5%; for `CCN(CCO)CCCOc1ccc2c(Nc3cc(CC(=O)Nc4cccc(F)c4)[nH]n3)ncnc2c1` [PCM-0094969], 66.9%.
Regarding `Nc1nc(N)c2nc(-c3cccc(O)c3)c(-c3cccc(O)c3)nc2n1` [PCM-0094971], the inhibition at 10 µM under setting [1] turned out to be 55.2%.
On the same count and under the same terms, for `CC(C)(C)c1cc(C=C(C#N)C#N)cc(Br)c1O` [PCM-0094972] the value was 57.2%.
Turning to `O=C1NC(=O)/C(=C/c2ccc3nccc(-c4ccncc4)c3c2)S1` [PCM-0094973], the inhibition at 10 µM under setting [1] was 14.5%.
As to `Cn1cnc(-c2cc3nccc(Oc4ccc(NC(=S)NC(=O)Cc5ccccc5)cc4F)c3s2)c1` [PCM-0094974], the inhibition at 10 µM under setting [1] is -6.9%.
`COc1cc(OC)c(/C=C/S(=O)(=O)Cc2ccc(OC)c(NCC(=O)O)c2)c(OC)c1` [PCM-0094976]: the inhibition at 10 µM under setting [1] was -2.1%.
Turning to `C[C@@H](N)C1CCC(C(=O)Nc2ccncc2)CC1` (stereo partly shown) [PCM-0094977], the inhibition at 10 µM under setting [1] is -2.1%.
Consider `CN(NC(=O)CC(=O)NN(C)C(=S)c1ccccc1)C(=S)c1ccccc1` [PCM-0094978], for which the inhibition at 10 µM under setting [1] was -6.9%.
Regarding `CCCS(=O)(=O)Nc1ccc(F)c(C(=O)c2c[nH]c3ncc(Cl)cc23)c1F` [PCM-0094979], the inhibition at 10 µM under setting [1] was determined as 23.4%.
Turning to `Nc1ccccc1NC(=O)c1ccc(CNC(=O)OCc2cccnc2)cc1` [PCM-0094980], the inhibition at 10 µM under setting [1] worked out at 9.7%.
Turning to `Cn1cc(C2=C(c3cn(C4CCN(Cc5ccccn5)CC4)c4ccccc34)C(=O)NC2=O)c2ccccc21` [PCM-0094982], the inhibition at 10 µM under setting [1] was 10.3%.
Regarding `O=C(Nc1cccc(Cl)c1)Nc1ncc(CCNc2ncnc3ccsc23)s1` [PCM-0094983], under setting [1], the inhibition at 10 µM worked out at 73.1%.
The same measure, in the same setting: as for `Cc1c(NC(=O)OC[C@@H]2COCCN2)cn2ncnc(Nc3ccc4c(cnn4Cc4cccc(F)c4)c3)c12` [PCM-0094984], the figure is 32.4%; as for `Cc1ccc(S(=O)(=O)OCC(=O)Nc2ccc(C(=O)O)c(O)c2)cc1` [PCM-0094985], 29.6%.
As to `CCCCCOC(=O)Nc1nc(=O)n([C@@H]2O[C@H](C)[C@@H](O)[C@H]2O)cc1F` [PCM-0094987], the inhibition at 10 µM under setting [1] was -11.7%.
Same read-out and setting: for `O=C(c1cc(Cc2n[nH]c(=O)c3ccccc23)ccc1F)N1CCN(C(=O)C2CC2)CC1` [PCM-0094988] the value was 9.7%.
`O=C(O)Cn1nnc(-c2cc(N3CCC(Oc4cc(F)ccc4Br)CC3)no2)n1` [PCM-0094989]: the inhibition at 10 µM under setting [1] is 4.1%.
With `COc1ccc(C2=N[C@@H](c3ccc(Cl)cc3)[C@@H](c3ccc(Cl)cc3)N2C(=O)N2CCNC(=O)C2)c(OC(C)C)c1` [PCM-0094990], under setting [1], the inhibition at 10 µM worked out at 14.5%.
Take `CC(C)c1cc(-c2n[nH]c(=O)n2-c2ccc3c(ccn3C)c2)c(O)cc1O` [PCM-0094991]: the inhibition at 10 µM under setting [1] came to 12.4%.
The same measure, in the same setting: for `Cc1ccc(NC(=O)c2ccc(CN3CCN(C)CC3)cc2)cc1Nc1nc(-c2cccnc2)cs1` [PCM-0094992] the value was -47.6%.
As for `CS(=O)(=O)N1CCN(Cc2cc3nc(-c4cccc5[nH]ncc45)nc(N4CCOCC4)c3s2)CC1` [PCM-0094994], the inhibition at 10 µM under setting [1] was -15.9%.
Turning to `O=[N+]([O-])c1cn2c(n1)OC[C@@H](OCc1ccc(OC(F)(F)F)cc1)C2` [PCM-0094995], the inhibition at 10 µM under setting [1] is 3.1%.
With `COc1cc2nccc(Oc3ccc(NC(=O)Nc4ccc(F)cc4F)c(F)c3)c2cc1OC` [PCM-0094996], the inhibition at 10 µM under setting [1] was found to be 4.8%.
The same measure, in the same setting: as for `S=C(NCc1ccc2c(c1)OCO2)N1CCN(c2ncnc3c2oc2ccccc23)CC1` [PCM-0094997], the figure is 28.3%; as for `C/C(=C\c1csc(C)n1)[C@@H]1C[C@@H]2O[C@]2(C)CCC[C@H](C)[C@H](O)[C@@H](C)C(=O)C(C)(C)[C@@H](O)CC(=O)O1` [PCM-0094998], -9.3%; as for `Cn1c(N2CCCCS2(=O)=O)nc(C(=O)NCc2ccc(F)cc2)c(O)c1=O` [PCM-0094999], -20.2%.
Same read-out and setting: for `CN(C)CCN1C(=O)c2cccc3cc(N)cc(c23)C1=O` [PCM-0095001] the value was 0.8%; for `Nc1nc(Nc2ccc(S(N)(=O)=O)cc2)nn1C(=O)c1c(F)cccc1F` [PCM-0095002], 84.1%.
For `CNC(=O)c1ccc(N2C(=S)N(c3ccc(C#N)c(C(F)(F)F)c3)C(=O)C2(C)C)cc1F` [PCM-0095003], under setting [1], the inhibition at 10 µM is -10.3%.
The same measure, in the same setting: for `C[C@]12CCC3=C4CCC(=O)C=C4CC[C@H]3[C@@H]1CC[C@@]2(O)CC#N` [PCM-0095005] the value was -11.7%; for `CCCCCCCCCC(=O)N[C@@H](Cc1c[nH]c2ccccc12)C(=O)N[C@H](CC(N)=O)C(=O)N[C@@H](CC(=O)O)C(=O)N[C@@H]1C(=O)NCC(=O)N[C@@H](CCCN)C(=O)N[C@@H](CC(=O)O)C(=O)N[C@H](C)C(=O)N[C@@H](CC(=O)O)C(=O)NCC(=O)N[C@H](CO)C(=O)N[C@@H]([C@H](C)CC(=O)O)C(=O)N[C@@H](CC(=O)c2ccccc2N)C(=O)O[C@@H]1C` [PCM-0095008], -1.6%.
For the compound `NC(=O)Cc1cccc(C(=O)c2ccccc2)c1N` [PCM-0095009], the inhibition at 10 µM under setting [1] was found to be 11.7%.
The same measure, in the same setting: as for `N#CC(=C(N)Sc1ccc(N)cc1)c1ccccc1C(F)(F)F` [PCM-0095011], the figure is -28.3%.
Turning to `CC(C)c1cc(C(=O)N2Cc3ccc(CN4CCN(C)CC4)cc3C2)c(O)cc1O` [PCM-0095012], the inhibition at 10 µM under setting [1] was -6.2%.
As for `NC(=O)c1ccc(-c2nc(-c3ccc4c(c3)OCO4)c(-c3ccccn3)[nH]2)cc1` [PCM-0095013], the inhibition at 10 µM under setting [1] was 12.4%.
With `COc1cc2nccc(Oc3ccc(NC(=O)NC4CC4)c(Cl)c3)c2cc1C(N)=O` [PCM-0095014], the inhibition at 10 µM under setting [1] amounted to 36.6%.
The same measure, in the same setting: as for `COc1ccc(S(=O)(=O)Nc2cccnc2Nc2ccc(O)cc2)cc1` [PCM-0095016], the figure is -14.5%; as for `CCNC(=O)c1noc(-c2cc(C(C)C)c(O)cc2O)c1-c1ccc(CN2CCOCC2)cc1` [PCM-0095017], -0.7%.
As for `Cc1[nH]c(/C=C2\C(=O)Nc3ccc(S(=O)(=O)Cc4c(Cl)cccc4Cl)cc32)c(C)c1C(=O)N1CCC[C@@H]1CN1CCCC1` [PCM-0095018], the inhibition at 10 µM under setting [1] came to 35.2%.
With `CCOC(=O)NC/C=C/c1ccc2ncnc(Nc3ccc(Oc4ccc(C)nc4)c(C)c3)c2c1` [PCM-0095019], the inhibition at 10 µM under setting [1] was -15.9%.
Turning to `FC(F)c1nc2ccccc2n1-c1nc(N2CCOCC2)nc(N2CCOCC2)n1` [PCM-0095021], under setting [1], the inhibition at 10 µM was found to be 16.6%.
The same measure, in the same setting: as for `Cc1cc(C(C)Nc2ccccc2)c2nc(N3CCOCC3)cc(=O)n2c1` (stereo not shown) [PCM-0095022], the figure is 10.3%; as for `C=CC(=O)Nc1cccc(Oc2nc(Nc3ccc(N4CCN(C)CC4)cc3)ncc2Cl)c1` [PCM-0095023], 91.7%; as for `C[S+]([O-])c1ccc(-c2nc(-c3ccc(F)cc3)c(-c3ccncc3)[nH]2)cc1` (stereo not shown) [PCM-0095024], 18.6%.
As to `Cc1nc(N)sc1-c1ccnc(Nc2ccc(N3CCOCC3)cc2)n1` [PCM-0095025], under setting [1], the inhibition at 10 µM turned out to be 57.2%.
Turning to `c1ccc2c(CCNc3ccc(Nc4ccncc4)cc3)c[nH]c2c1` [PCM-0095026], the inhibition at 10 µM under setting [1] was found to be 26.9%.
`CC(=O)Oc1cc2c(s1)CCN(C(C(=O)C1CC1)c1ccccc1F)C2` (stereo not shown) [PCM-0095029]: under setting [1], the inhibition at 10 µM is -2.3%.
For `N#CC[C@H](C1CCCC1)n1cc(-c2ncnc3[nH]ccc23)cn1` [PCM-0095031], the inhibition at 10 µM under setting [1] stood at 28.3%.
As for `C[C@@H](NCCCc1cccc(C(F)(F)F)c1)c1cccc2ccccc12` [PCM-0095032], under setting [1], the inhibition at 10 µM was 24.1%.
Turning to `C[C@@H](O)[C@H]1C(=O)N2C(C(=O)O)=C(S[C@@H]3CN[C@H](C(=O)N(C)C)C3)[C@H](C)[C@H]12` [PCM-0095036], the inhibition at 10 µM under setting [1] is -14.8%.
Take `CCN(CC)CCCCNc1ncc2cc(-c3cc(OC)cc(OC)c3)c(NC(=O)NC(C)(C)C)nc2n1` [PCM-0095037]: the inhibition at 10 µM under setting [1] was -9%.
